Laboratory results taken from patent publication US20210070748A1, “INHIBITORS OF BRUTONS TYROSINE KINASE” (Pharmacyclics LLC, priority 2015, published 2021).
pIC50: −log10 of the molar value. Read-outs that look alike come from different tables or passages of the source.

Assays:
Assay type in all cases: biochemical
BTK-WT = target: T1, BTK-WT (Homo sapiens, UniProt Q06187); assay: Btk in vitro inhibitory activity (one of Method A TR-FRET, Method B electrophoretic mobility shift, Method C radiometric filter binding); details: read-out: IC50 BTK-WT
T1 construct: purified from insect cells as a full-length construct containing an N-terminal 6X-His tag; His6 (N); made in house; host or cells: insect cells (baculovirus Sf21 in Method B)

SRC = SRC (Homo sapiens, UniProt P12931); assay: Inhibition of a panel of kinases, in vitro HotSpot kinase assay: SRC
Method: The degree of inhibition of a panel of kinases is determined using the in vitro HotSpot kinase assay (purified enzymes, ^33P-ATP, an appropriate substrate and 1 μM ATP).

JAK3 = target: T2, JAK3 (Homo sapiens, UniProt P52333); assay: Inhibition of a panel of kinases, in vitro HotSpot kinase assay: JAK3; details: read-out: IC50 JAK3
T2 sequence (P52333 1-1124): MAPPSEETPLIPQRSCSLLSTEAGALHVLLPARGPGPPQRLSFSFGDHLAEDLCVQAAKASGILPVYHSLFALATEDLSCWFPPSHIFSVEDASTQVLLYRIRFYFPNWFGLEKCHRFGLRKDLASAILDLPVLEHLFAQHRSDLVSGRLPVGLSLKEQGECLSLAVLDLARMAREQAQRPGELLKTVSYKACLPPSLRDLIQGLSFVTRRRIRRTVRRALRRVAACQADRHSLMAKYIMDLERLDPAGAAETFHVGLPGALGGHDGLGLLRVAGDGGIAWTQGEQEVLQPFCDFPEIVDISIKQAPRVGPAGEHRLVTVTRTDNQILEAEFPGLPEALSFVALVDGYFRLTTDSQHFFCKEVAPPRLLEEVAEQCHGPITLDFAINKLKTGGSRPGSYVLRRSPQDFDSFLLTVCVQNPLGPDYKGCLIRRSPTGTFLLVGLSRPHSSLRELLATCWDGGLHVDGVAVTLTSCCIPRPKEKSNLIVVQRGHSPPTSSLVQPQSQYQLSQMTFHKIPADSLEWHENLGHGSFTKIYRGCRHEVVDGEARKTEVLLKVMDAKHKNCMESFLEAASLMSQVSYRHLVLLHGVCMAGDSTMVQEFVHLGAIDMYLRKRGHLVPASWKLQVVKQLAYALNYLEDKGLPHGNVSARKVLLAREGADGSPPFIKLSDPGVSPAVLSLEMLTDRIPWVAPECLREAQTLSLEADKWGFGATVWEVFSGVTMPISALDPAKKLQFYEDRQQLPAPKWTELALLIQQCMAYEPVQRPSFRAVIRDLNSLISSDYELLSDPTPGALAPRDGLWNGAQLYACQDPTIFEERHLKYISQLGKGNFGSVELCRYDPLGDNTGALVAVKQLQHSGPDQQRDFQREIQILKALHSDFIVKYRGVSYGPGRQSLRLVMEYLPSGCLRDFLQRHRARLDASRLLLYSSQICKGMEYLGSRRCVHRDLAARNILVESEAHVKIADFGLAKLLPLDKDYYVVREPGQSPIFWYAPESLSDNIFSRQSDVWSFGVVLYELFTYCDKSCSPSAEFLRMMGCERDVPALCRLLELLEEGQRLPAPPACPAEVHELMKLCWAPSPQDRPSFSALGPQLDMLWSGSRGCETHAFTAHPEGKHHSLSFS

[1] = D-compounds panel data, 1 μM ATP

T1 sequence (Q06187 whole entry): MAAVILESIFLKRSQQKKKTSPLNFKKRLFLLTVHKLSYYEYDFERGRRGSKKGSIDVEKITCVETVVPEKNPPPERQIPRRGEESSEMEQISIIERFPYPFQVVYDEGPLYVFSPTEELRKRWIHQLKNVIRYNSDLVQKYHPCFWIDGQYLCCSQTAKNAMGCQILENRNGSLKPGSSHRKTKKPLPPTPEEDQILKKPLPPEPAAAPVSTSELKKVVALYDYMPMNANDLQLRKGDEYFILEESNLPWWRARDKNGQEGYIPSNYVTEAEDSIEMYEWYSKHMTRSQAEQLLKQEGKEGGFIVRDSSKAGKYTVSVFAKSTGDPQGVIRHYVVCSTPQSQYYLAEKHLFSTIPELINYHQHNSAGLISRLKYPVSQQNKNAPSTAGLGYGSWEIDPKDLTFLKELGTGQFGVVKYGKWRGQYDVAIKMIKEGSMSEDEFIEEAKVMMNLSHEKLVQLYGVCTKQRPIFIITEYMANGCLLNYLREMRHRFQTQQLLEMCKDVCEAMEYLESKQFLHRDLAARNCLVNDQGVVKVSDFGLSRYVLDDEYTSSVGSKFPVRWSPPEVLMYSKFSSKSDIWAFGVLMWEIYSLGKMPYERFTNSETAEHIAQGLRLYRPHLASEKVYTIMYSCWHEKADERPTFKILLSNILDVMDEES
Sequence of SRC (P12931 whole entry): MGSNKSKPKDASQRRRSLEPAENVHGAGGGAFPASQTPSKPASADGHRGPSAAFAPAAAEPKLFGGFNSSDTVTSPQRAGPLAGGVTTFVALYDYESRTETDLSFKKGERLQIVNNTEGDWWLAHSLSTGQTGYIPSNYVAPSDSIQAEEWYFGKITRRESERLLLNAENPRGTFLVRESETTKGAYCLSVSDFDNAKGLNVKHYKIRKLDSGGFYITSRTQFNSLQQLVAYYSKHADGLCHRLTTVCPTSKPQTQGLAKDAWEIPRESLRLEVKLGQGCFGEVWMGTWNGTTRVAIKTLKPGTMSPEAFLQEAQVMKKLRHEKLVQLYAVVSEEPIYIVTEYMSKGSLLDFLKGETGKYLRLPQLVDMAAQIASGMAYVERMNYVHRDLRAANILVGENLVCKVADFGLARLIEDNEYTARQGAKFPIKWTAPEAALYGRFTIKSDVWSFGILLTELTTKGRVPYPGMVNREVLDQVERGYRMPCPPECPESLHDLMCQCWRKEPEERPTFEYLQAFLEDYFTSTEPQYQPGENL

Row | pIC50 (BTK-WT; D-compounds panel data) | pIC50 (SRC; [1]) | pIC50 (JAK3; [1]) | SMILES | pIC50 (BTK-WT; E compounds, Table 17) | pIC50 (SRC; E compounds, Table 17) | pIC50 (JAK3; E compounds, Table 17)
1 | ≥ 8.00 | 7.00 to 8.00 | 5.00 to 6.00 | C[C@@H]1[C@H](NC(=O)c2ccc(C3CC3)cc2F)CCCN1c1cnc(C(N)=O)c(Nc2ccc(N3CCN(C)CC3)c(F)c2)n1 [Example D-82, 5-[(2R,3R)-3-(4-cyclopropyl-2-fluorobenzamido)-2-methylpiperidin-1-yl]-3-{[3-fluoro-4-(4-methylpiperazin-1-yl)phenyl]amino}pyrazine-2-carboxamide] | – | – | –
2 | ≥ 8.00 | 7.00 to 8.00 | 6.00 to 7.00 | C[C@@H]1[C@H](NC(=O)c2ccc(C(F)(F)F)cn2)CCCN1c1cnc(C(N)=O)c(Nc2cnn(C)c2)n1 [Example D-87, 3-[(1-methyl-1H-pyrazol-4-yl)amino]-5-[(2R,3R)-2-methyl-3-[5-(trifluoromethyl)pyridine-2-amido]piperidin-1-yl]pyrazine-2-carboxamide] | – | – | –
3 | ≥ 8.00 | 7.00 to 8.00 | < 5.00 | CC1COc2cc(C(=O)N[C@@H]3CCCN(c4cnc(C(N)=O)c(Nc5cnn(C)c5)n4)[C@@H]3C)ccc2C1 (stereo partly drawn) [Example D-56, 3-[(1-methyl-1H-pyrazol-4-yl)amino]-5-[(2R,3R)-2-methyl-3-(3-methyl-3,4-dihydro-2H-1-benzopyran-7-amido)piperidin-1-yl]pyrazine-2-carboxamide] | – | – | –
4 | 6.00 to 7.00 | < 5.00 | < 5.00 | C[C@@H]1[C@H](NC(=O)c2ccc(C3CC3)cc2)CCCN1c1cnc(C(N)=O)c(Nc2ccc(OC(F)(F)F)cc2)n1 [Example D-42, 5-[(2R,3R)-3-(4-cyclopropylbenzamido)-2-methylpiperidin-1-yl]-3-{[4-(trifluoromethoxy)phenyl]amino}pyrazine-2-carboxamide] | – | – | –
5 | ≥ 8.00 | 7.00 to 8.00 | < 5.00 | C[C@@H]1[C@H](NC(=O)c2ccc(C3CC3)cc2)CCCN1c1cnc(C(N)=O)c(Nc2cnn(CC3CCOCC3)c2)n1 [Example D-319, 5-[(2R,3R)-3-(4-cyclopropylbenzamido)-2-methylpiperidin-1-yl]-3-{[1-(oxan-4-ylmethyl)-1H-pyrazol-4-yl]amino}pyrazine-2-carboxamide] | – | – | –
6 | 7.00 to 8.00 | 5.00 to 6.00 | 5.00 to 6.00 | Cn1cc(Nc2nc(N3CCC[C@H]4[C@@H]3CCN4C(=O)c3ccc(C4CC4)cc3)cnc2C(N)=O)cn1 [Example D-45, 5-[(3aS,7aS)-1-(4-cyclopropylbenzoyl)-octahydro-1H-pyrrolo[3,2-b]pyridin-4-yl]-3-[(1-methyl-1H-pyrazol-4-yl)amino]pyrazine-2-carboxamide] | – | – | –
7 | 7.00 to 8.00 | 6.00 to 7.00 | < 5.00 | C[C@@H]1[C@H](NC(=O)N(C)C)CCCN1c1cnc(C(N)=O)c(Nc2ccc(N3CCN(C)CC3)cc2F)n1 [Example D-52, 5-[(2R,3R)-3-[(dimethylcarbamoyl)amino]-2-methylpiperidin-1-yl]-3-{[2-fluoro-4-(4-methylpiperazin-1-yl)phenyl]amino}pyrazine-2-carboxamide] | – | – | –
8 | 7.00 to 8.00 | 6.00 to 7.00 | 5.00 to 6.00 | C[C@@H]1[C@H](NC(=O)c2ccc(C3CC3)cc2)CCCN1c1cnc(C(N)=O)c(Nc2ccc3nccn3c2)n1 [Example D-83, 5-[(2R,3R)-3-(4-cyclopropylbenzamido)-2-methylpiperidin-1-yl]-3-({imidazo[1,2-a]pyridin-6-yl}amino)pyrazine-2-carboxamide] | – | – | –
9 | ≥ 8.00 | 6.00 to 7.00 | 6.00 to 7.00 | C[C@@H]1[C@H](NC(=O)c2ccc(-c3ncccn3)cc2)CCCN1c1cnc(C(N)=O)c(Nc2cnn(C)c2)n1 [Example D-85, 3-[(1-methyl-1H-pyrazol-4-yl)amino]-5-[(2R,3R)-2-methyl-3-[4-(pyrimidin-2-yl)benzamido]piperidin-1-yl]pyrazine-2-carboxamide] | – | – | –
10 | 7.00 to 8.00 | 6.00 to 7.00 | 5.00 to 6.00 | Cc1cc(Nc2nc(N3C[C@@H](NC(=O)c4ccc(C5CC5)cc4F)CC[C@H]3C)cnc2C(N)=O)sn1 [Example D-80, 5-[(2R,5S)-5-(4-cyclopropyl-2-fluorobenzamido)-2-methylpiperidin-1-yl]-3-[(3-methyl-1,2-thiazol-5-yl)amino]pyrazine-2-carboxamide] | – | – | –
11 | ≥ 8.00 | 7.00 to 8.00 | 5.00 to 6.00 | C[C@@H]1[C@H](NC(=O)c2cnn(C(C)(C)C)c2)CCCN1c1cnc(C(N)=O)c(Nc2cnn(C)c2)n1 [Example D-57, 5-[(2R,3R)-3-(1-tert-butyl-1H-pyrazole-4-amido)-2-methylpiperidin-1-yl]-3-[(1-methyl-1H-pyrazol-4-yl)amino]pyrazine-2-carboxamide] | – | – | –

The remaining lines, values behind:

Row | SMILES | pIC50 (BTK-WT; D-compounds panel data) | pIC50 (SRC; [1]) | pIC50 (JAK3; [1]) | pIC50 (BTK-WT; E compounds, Table 17) | pIC50 (SRC; E compounds, Table 17) | pIC50 (JAK3; E compounds, Table 17)
12 | Cc1ncc(Nc2nc(N3CCC[C@@H](NC(=O)c4ccc(C5CC5)cc4F)C3)cnc2C(N)=O)s1 [Example D-4, 5-[(3R)-3-(4-cyclopropyl-2-fluorobenzamido)piperidin-1-yl]-3-[(2-methyl-1,3-thiazol-5-yl)amino]pyrazine-2-carboxamide] | 7.00 to 8.00 | < 5.00 | 5.00 to 6.00 | – | – | –
13 | CN1CCN(C(=O)c2ccc(Nc3nc(N[C@H]4CC[C@H](NC(=O)c5ccc(C6CC6)cc5F)CC4)cnc3C(N)=O)cc2)CC1 [Example D-70, 3-{[4-(4-methylpiperazine-1-carbonyl)phenyl]amino}-5-{[(1 r,4r)-4-(4-cyclopropyl-2-fluorobenzamido)cyclohexyl]amino}pyrazine-2-carboxamide] | 7.00 to 8.00 | 6.00 to 7.00 | 6.00 to 7.00 | – | – | –
14 | CC(C)n1ccc(C(=O)N[C@@H]2CCCN(c3cnc(C(N)=O)c(Nc4cnn(C)c4)n3)[C@@H]2C)cc1=O [Example D-35, 3-[(1-methyl-1H-pyrazol-4-yl)amino]-5-[(2R,3R)-2-methyl-3-[2-oxo-1-(propan-2-yl)-1,2-dihydropyridine-4-amido]piperidin-1-yl]pyrazine-2-carboxamide] | ≥ 8.00 | 7.00 to 8.00 | 6.00 to 7.00 | – | – | –
15 | C[C@@H]1[C@H](NC(=O)c2ccc(C(C)(C)O)nc2)CCCN1c1cnc(C(N)=O)c(Nc2cnn(C)c2)n1 [Example D-40, 5-[(2R,3R)-3-[6-(2-hydroxypropan-2-yl)pyridine-3-amido]-2-methylpiperidin-1-yl]-3-[(1-methyl-1H-pyrazol-4-yl)amino]pyrazine-2-carboxamide] | ≥ 8.00 | 7.00 to 8.00 | 6.00 to 7.00 | – | – | –
16 | C=CC(=O)N1CC[C@@H](N(C)c2cnc(C(N)=O)c(Nc3ccc(C4(C)CCN(C5CC5)CC4)cc3)n2)C1 [Example E-104, (R)-5-((1-acryloylpyrrolidin-3-yl)(methyl)amino)-3-(4-(1-cyclopropyl-4-methylpiperidin-4-yl)phenylammo)pyrazine-2-carboxamide] | – | – | – | ≥ 8.00 | 7.00 to 8.00 | > 8.00
17 | C[C@@H]1[C@H](N2CCN(C)C2=O)CCCN1c1cnc(C(N)=O)c(Nc2ccc(C3(C)CCN(C4CC4)CC3)cc2)n1 [Example D-38, 3-{[4-(1-cyclopropyl-4-methylpiperidin-4-yl)phenyl]amino}-5-[(2R,3R)-2-methyl-3-(3-methyl-2-oxoimidazolidin-1-yl)piperidin-1-yl]pyrazine-2-carboxamide] | ≥ 8.00 | 7.00 to 8.00 | 7.00 to 8.00 | – | – | –
18 | C[C@@H]1[C@H](NC(=O)N(C)C)CCCN1c1cnc(C(N)=O)c(Nc2ccc(OC3CCN(C)CC3)cc2)n1 [Example D-33, 5-[(2R,3R)-3-[(dimethylcarbamoyl)amino]-2-methylpiperidin-1-yl]-3-({4-[(1-methylpiperidin-4-yl)oxy]phenyl}amino)pyrazine-2-carboxamide] | ≥ 8.00 | 7.00 to 8.00 | 5.00 to 6.00 | – | – | –
19 | CN1CCN(C(=O)c2ccc(Nc3nc(N[C@H]4CC[C@@H](NC(=O)c5ccc(C6CC6)cc5F)CC4)cnc3C(N)=O)cc2)CC1 [Example D-71, 3-{[4-(4-methylpiperazine-1-carbonyl)phenyl]amino}-5-{[(1 s,4s)-4-(4-cyclopropyl-2-fluorobenzamido)cyclohexyl]amino}pyrazine-2-carboxamide] | 7.00 to 8.00 | 6.00 to 7.00 | 7.00 to 8.00 | – | – | –
